Experimental data from paper PMC9030254, “Target Hopping from Protein Kinases to PXR: Identification of Small-Molecule Protein Kinase Inhibitors as Selective Modulators of Pregnane X Receptor from TüKIC Library” (Cells, 2022).

Assays:
Assay in all cases: Kinase profiling
Assay type in all cases: biochemical
CDK8/CycC = target: T1, CDK8/CycC (Homo sapiens, UniProt P49336)
T1 construct: purchased ProQinase (Freiburg, Germany)
Method: (§1) The analysis was performed by ProQinase (Freiburg, Germany).

CK1epsilon = target: T2, CK1epsilon (Homo sapiens, UniProt P49674)
T2 construct: purchased ProQinase (Freiburg, Germany)
T2 sequence (P49674 whole entry): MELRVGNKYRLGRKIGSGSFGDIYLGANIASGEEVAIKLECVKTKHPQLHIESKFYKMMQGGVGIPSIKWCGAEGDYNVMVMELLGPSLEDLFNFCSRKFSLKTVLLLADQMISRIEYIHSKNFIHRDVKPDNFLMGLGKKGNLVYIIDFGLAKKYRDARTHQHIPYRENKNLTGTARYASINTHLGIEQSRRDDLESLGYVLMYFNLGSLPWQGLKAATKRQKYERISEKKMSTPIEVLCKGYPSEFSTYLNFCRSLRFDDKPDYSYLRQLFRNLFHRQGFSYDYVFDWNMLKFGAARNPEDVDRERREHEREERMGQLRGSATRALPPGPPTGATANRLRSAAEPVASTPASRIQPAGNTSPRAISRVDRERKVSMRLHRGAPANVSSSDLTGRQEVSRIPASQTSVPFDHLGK
Method: as §1

CDK16/CycY = target: T3, CDK16/CycY (Homo sapiens, UniProt Q00536)
T3 construct: purchased ProQinase (Freiburg, Germany)
T3 sequence (Q00536 whole entry): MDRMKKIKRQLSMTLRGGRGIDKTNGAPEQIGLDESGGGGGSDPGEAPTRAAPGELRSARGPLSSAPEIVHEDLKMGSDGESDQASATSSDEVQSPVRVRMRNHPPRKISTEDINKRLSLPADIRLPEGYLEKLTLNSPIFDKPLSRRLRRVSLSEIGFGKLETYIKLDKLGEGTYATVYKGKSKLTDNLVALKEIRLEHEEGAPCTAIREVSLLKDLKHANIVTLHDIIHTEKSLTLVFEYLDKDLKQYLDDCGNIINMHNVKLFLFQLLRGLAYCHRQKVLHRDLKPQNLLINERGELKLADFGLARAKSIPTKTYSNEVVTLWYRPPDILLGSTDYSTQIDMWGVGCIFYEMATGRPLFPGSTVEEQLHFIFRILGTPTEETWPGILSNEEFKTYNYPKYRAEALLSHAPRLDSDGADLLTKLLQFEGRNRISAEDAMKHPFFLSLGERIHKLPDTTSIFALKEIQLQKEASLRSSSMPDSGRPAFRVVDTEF
T3 sequence (Q8ND76 whole entry partner): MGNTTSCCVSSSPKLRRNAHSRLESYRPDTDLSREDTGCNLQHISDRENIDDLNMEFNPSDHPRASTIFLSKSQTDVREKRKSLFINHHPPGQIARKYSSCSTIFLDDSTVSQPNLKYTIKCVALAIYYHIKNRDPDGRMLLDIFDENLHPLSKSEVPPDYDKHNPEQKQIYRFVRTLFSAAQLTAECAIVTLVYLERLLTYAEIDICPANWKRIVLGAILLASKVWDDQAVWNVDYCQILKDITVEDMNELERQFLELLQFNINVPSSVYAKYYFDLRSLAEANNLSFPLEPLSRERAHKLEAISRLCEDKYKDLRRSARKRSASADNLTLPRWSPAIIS
Method: as §1

EPHB3 = target: T4, EPHB3 (Homo sapiens, UniProt P54753)
T4 construct: purchased ProQinase (Freiburg, Germany)
T4 sequence (P54753 34-998): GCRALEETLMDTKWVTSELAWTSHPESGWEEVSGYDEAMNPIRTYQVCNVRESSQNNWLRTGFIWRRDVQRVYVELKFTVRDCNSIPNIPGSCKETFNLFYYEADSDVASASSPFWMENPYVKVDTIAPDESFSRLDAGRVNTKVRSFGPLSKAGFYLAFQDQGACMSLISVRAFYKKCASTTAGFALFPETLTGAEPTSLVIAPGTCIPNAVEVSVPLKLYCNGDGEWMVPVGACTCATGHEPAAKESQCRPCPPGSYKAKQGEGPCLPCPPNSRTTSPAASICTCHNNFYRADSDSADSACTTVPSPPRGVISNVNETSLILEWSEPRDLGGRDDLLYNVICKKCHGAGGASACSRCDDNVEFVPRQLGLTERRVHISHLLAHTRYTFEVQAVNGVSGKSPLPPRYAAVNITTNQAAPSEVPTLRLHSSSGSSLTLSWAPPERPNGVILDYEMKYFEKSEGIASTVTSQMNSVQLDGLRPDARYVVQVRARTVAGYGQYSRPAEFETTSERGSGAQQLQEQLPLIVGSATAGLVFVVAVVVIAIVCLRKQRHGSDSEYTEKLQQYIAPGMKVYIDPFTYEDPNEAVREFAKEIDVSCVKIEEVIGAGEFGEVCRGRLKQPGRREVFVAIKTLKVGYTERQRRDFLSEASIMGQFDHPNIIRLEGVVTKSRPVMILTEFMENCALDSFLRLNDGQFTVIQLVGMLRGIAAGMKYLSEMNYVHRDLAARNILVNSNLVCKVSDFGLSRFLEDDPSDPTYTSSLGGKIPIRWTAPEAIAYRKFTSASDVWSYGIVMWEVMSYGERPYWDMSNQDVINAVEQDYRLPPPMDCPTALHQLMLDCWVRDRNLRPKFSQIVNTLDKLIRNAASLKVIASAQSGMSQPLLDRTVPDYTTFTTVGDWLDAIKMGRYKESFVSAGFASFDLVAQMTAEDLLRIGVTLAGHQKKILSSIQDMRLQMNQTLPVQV
Method: as §1

TAOK2 = target: T5, TAOK2 (Homo sapiens, UniProt Q9UL54)
T5 construct: purchased ProQinase (Freiburg, Germany)
T5 sequence (Q9UL54 1-1235): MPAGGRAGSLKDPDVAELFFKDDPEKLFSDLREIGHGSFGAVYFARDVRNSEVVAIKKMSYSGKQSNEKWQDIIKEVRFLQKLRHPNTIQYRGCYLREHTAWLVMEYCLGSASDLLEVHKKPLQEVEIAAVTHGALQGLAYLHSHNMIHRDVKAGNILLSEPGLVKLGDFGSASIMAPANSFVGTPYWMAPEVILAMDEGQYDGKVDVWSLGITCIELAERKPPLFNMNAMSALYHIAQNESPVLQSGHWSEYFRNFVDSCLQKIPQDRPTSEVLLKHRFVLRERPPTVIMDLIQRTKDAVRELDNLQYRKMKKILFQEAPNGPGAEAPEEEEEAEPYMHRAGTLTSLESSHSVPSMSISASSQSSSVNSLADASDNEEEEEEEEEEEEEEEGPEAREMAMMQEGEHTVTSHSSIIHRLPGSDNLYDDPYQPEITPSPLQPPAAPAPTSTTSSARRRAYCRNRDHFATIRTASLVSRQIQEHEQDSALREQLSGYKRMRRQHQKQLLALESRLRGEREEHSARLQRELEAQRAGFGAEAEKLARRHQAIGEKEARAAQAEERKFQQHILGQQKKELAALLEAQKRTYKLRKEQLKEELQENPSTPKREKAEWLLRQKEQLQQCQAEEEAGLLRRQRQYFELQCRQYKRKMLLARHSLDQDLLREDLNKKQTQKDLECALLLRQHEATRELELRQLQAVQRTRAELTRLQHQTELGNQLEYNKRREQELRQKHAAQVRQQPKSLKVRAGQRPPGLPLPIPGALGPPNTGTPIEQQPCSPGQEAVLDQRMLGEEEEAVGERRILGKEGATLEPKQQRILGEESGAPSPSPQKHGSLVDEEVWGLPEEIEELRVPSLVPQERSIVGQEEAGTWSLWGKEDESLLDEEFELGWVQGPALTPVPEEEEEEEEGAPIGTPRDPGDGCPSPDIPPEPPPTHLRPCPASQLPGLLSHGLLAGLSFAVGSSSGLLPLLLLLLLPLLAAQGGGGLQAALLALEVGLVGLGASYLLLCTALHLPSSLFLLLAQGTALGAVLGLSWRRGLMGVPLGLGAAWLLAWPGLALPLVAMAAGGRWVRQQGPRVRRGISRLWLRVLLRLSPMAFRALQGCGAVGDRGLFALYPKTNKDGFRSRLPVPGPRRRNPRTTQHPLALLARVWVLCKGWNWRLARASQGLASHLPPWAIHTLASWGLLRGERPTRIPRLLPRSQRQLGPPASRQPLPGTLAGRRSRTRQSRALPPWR
Method: as §1

T1 sequence (P49336 whole entry): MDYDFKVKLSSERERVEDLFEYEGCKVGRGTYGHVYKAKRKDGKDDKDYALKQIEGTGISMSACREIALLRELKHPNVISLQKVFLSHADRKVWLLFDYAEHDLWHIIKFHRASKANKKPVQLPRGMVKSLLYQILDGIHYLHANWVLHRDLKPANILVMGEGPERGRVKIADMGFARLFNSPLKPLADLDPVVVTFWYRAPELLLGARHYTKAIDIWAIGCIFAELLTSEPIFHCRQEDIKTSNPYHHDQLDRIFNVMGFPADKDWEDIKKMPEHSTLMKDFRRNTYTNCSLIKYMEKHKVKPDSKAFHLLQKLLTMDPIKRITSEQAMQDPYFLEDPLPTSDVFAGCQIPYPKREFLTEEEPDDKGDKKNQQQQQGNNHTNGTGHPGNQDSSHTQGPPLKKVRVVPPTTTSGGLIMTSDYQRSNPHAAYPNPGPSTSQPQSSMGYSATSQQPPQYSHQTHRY
T1 sequence (P24863 whole entry partner): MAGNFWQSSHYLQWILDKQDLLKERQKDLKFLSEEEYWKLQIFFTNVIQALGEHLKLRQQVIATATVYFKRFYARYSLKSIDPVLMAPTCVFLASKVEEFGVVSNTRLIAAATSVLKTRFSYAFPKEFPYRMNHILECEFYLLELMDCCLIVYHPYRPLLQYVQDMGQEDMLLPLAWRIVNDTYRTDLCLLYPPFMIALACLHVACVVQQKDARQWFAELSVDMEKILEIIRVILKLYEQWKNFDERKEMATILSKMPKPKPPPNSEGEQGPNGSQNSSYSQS

Row | Structure (SMILES) | Residual activity (CDK8/CycC; 1.0E-05 M) | Residual activity (CDK8/CycC; 1.0E-06 M) | Residual activity (CK1epsilon; 1.0E-05 M) | Residual activity (CK1epsilon; 1.0E-06 M) | Residual activity (CDK16/CycY; 1.0E-05 M) | Residual activity (CDK16/CycY; 1.0E-06 M) | Residual activity (EPHB3; 1.0E-05 M) | Residual activity (EPHB3; 1.0E-06 M) | Residual activity (TAOK2; 1.0E-05 M) | Residual activity (TAOK2; 1.0E-06 M) | inhibition at 10 µM (CK1epsilon; 10 µM, read-out: inhibition of CK1-ε)
1 | O=C(Cc1ccccc1)Nc1ccc(F)c(Nc2ccc3c(c2)CCCCC3=O)c1 [Compound 100] | 60 % of control | 82 % of control | 117 % of control | 107 % of control | 101 % of control | 99 % of control | 69 % of control | 100 % of control | 97 % of control | 90 % of control | 
2 | O=C(Nc1ccc(F)c(Nc2ccc3c(c2)CCCCC3=O)c1)c1cccc(F)c1 [Compound 109] | 61 % of control | 79 % of control | 15 % of control | 52 % of control | 100 % of control | 96 % of control | 85 % of control | 100 % of control | 108 % of control | 104 % of control | ≥ 50%
